Experimental findings from paper PMC9267955, “Antidiabetic, Antiglycation, and Antioxidant Activities of Ethanolic Seed Extract of Passiflora edulis and Piceatannol In Vitro” (Molecules, 2022) are described below.

Data set [1] is described as follows: MTS cell viability assay. The following applies: human, MCF-10A cells, up to 100 µg/mL. Type of data set: cell-based. Here is the method: BEAS-2B, MCF10-A, and AML-12, cells were purchased from the American Tissue Type Culture Collection (ATCC; CRL-9609, CRL-10317, and CRL-2254) and cultured with a specific medium. BEAS-2B cells were cultured with LHC-9 media at 37 °C in an incubator with 5% CO2. […] Cells were grown to around 70% confluence on the culture flask, and passages (<10) were employed for all experimental conditions. MTS Cell Titer 96™ aqueous cell proliferation assay was used to determine cell viability. […] For that, 1 × 10^4 cells were plated on a 96-well plate with a growth medium of 100 μL/well. […] Fifteen microliters of MTS reagent (with PMS) was then added to each well and incubated for 3 h in the dark. Absorbance was recorded at 490 nm using a microplate reader (Infinite® 200 PRO, TECAN, Männedorf, Switzerland). For each experiment, cells with DMSO media served as control, and cells with only culture medium and MTS reagent served as the blank.
A general note: Tetrazolium dyes change colour on reduction, which living cells bring about.

Data set [2] relates to MCF-10A cells. Put plainly: Intracellular ROS level (DCFH-DA) after NNKOAc. Type of data set: cell-based. The following applies: 50 µg/mL, 3 h pretreatment; NNKOAc 100 µM. The protocol:
The generation of intracellular ROS in BEAS-2B, AML-12, and MCF-10A cells after treatments was measured as described previously. Briefly, DCFH-DA dye was readily taken up by cells and is subsequently hydrolyzed to DCFH, which can be oxidized to a measurable fluorescent product dichlorofluorescein (DCF). […] Cells with DMSO media (0.5%) served as the vehicle control. After treatments, DCFH-DA was added to the cell culture plates at a final concentration of 5 μM followed by 40 min incubation at dark. The fluorescence […] was then measured at an excitation and emission wavelength of 485 nm and 535 nm, using a microplate reader (Infinite® 200 PRO, TECAN, Männedorf, Switzerland).
BEAS-2B, MCF10-A, and AML-12, cells were purchased from the American Tissue Type Culture Collection (ATCC; CRL-9609, CRL-10317, and CRL-2254) and cultured with a specific medium. BEAS-2B cells were cultured with LHC-9 media at 37 °C in an incubator with 5% CO2. Culture flasks (polystyrene T75) were pre-coated with a mixture of 0.01 mg/mL fibronectin, 0.03 mg/mL bovine collagen type I, and 0.01 mg/mL bovine serum albumin were dissolved in LHC-9 medium overnight. […]

The nature of data set [3]: MGO capture using derivatization with OPD (HPLC). Particulars: PESE 2 mg/mL, PIC 2 mM, AMG 2 mM; MGO 2 mM; 37 °C, 1 h. Here is the method:
MGO scavenging was tested using a described procedure, with slight modifications. The quantification of MGO was based on derivatization with OPD, leading to the formation of the product 2-methylquinoxyline (2-MQ). MGO and OPD were dissolved in phosphate buffer (50 mM, pH 7.4) to a concentration of 2 mM and 4 mM, respectively. […] The reaction system was composed of 125 μL of the MGO solution, 125 μL of phosphate buffer (negative control), or PESE incubated at 37 °C for 1 h. After 250 μL of the OPD solution was added, the tubes were kept for 30 min for the derivatization reaction between MGO and OPD to complete. Then, the chromatographic analysis was performed. All solutions were previously filtered (microfilter pore diameter 0.45 μm). […] The linear gradient for elution was: starting at 5% of solvent B, 0–3 min, 5 to 50% B; 3–16 min, isocratic in 50% B; 16–17 min, 50–90% B; 17–19 min, isocratic in 90% B and 19–19.5 min, 90–5% B. The derivatization product, 2-methylquinoxyline (2-MQ), was detected at 315 nm, with a retention time of 10 min. The percentage of trapping efficiency of MGO was calculated using the following equation: % trapping MGO = [100 − (peak area after adding sample/peak area without adding sample) × 100].

The nature of data set [4]: Superoxide anion radical scavenging activity. Here is the method: The potential of the samples to scavenger superoxide anion radicals was determined, with minor modifications. […] Phosphate buffer (19 mM, pH 7.4) was used to dissolve NADH, NBT, and PMS. QCT was used as means of comparison. The experiment was conducted at 37 °C in a microplate reader (Infinite® 200 PRO, TECAN, Männedorf, Switzerland), and the absorbance was measured at 560 nm. The results were expressed as IC50 of extract solution in μg/mL.

Data set [5] has as its target T1, alpha-amylase from porcine pancreas (Sus scrofa, UniProt P00690).
T1 construct: alpha-amylase from porcine pancreas; purchased Sigma-Aldrich (Oakville, ON, Canada); host or cells: porcine pancreas
T1 sequence (P00690 16-511): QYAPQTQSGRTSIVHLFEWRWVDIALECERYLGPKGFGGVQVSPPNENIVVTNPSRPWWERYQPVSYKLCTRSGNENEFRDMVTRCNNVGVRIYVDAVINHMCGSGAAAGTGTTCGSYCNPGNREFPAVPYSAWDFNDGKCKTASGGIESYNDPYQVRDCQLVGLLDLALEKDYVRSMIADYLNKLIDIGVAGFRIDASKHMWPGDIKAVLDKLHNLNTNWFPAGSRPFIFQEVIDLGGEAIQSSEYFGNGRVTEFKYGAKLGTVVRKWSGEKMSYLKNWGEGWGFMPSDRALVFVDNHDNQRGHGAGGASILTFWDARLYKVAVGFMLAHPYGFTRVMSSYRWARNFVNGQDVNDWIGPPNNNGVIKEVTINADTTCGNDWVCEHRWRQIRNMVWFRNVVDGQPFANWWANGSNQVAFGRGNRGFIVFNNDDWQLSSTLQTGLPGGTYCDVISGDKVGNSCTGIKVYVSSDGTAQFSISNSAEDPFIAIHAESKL
Put plainly: Alpha-amylase inhibition assay. Type of data set: biochemical. Particulars: pancreatic alpha-amylase; mean ± SD, triplicates.
Procedure: Plant extract screening for alpha-amylase inhibition was conducted using the previously described method [46], with some modifications. Except as otherwise indicated, solutions were prepared in 0.01 M potassium phosphate buffer containing sodium chloride (60 mM) and sodium azide (0.02% w/v), pH 6.8. […] After 10 min of incubation at 37 °C, 20 µL of the substrate 2-chloro-4-nitrophenyl-α-D-maltotrioside (5 mM) was added. The mixture was then incubated for 30 min at 37 °C for the reaction to take place. The reaction was terminated by adding 240 µL of trisodium phosphate solution of pH 11 (1% w/v) to stop enzyme activity. […] The positive control was a mixture of enzyme and substrate without inhibitors. Sample control containing sample and buffer was used to eliminate color interference. Buffer was used as blank. The percentage of the alpha-amylase inhibition was calculated as I% = [(Abs0 − Abs1)/Abs0] × 100, where A0 is the absorbance of the positive control subtracted from the blank, Abs 1 is the absorbance in the presence of the extract subtracted from sample control. The IC50 (half-maximal inhibitory concentration) was calculated graphically, using an analytical curve by plotting the concentration versus the inhibition percentage (I%).

As a reminder, the viability is a per cent measure of how many cells are alive, often set against a control. Higher therefore signals better survival. A word on the IC50: it is the concentration that inhibits the measured activity by half. For `Oc1cc(O)cc(/C=C/c2ccc(O)c(O)c2)c1` [PIC, 3,3′,4′,5-trans-tetrahydroxystilbene], in data set [1], the viability at 24 h is above 80%. Moreover, the “Protection from oxidative stress (ROS) caused by the carcinogen, MCF-10A” value in data set [2] is recorded as “able to protect”. The compound also had an MGO trapping in data set [3] of 65.1%. The “O2•− IC50” value in data set [4] was determined as 7.3 ± 0.02 µg/mL. For the same compound, the IC50 was 30.1 µM in data set [4] (data in parenthesis are in μM, read-out: O2•− IC50 (in parenthesis) (converted)) and 350 µM in data set [5].
